Source: publication PMC12557367, ““Precision on Two Wheels”–Structural Refinement of ^64Cu- and ^68Ga-Labeled Bicyclic Peptides Targeting Nectin‑4 for Improved Tumor Imaging: From Preclinical Development to First-in-Human Application” (Journal of Medicinal Chemistry, 2025)
Read-outs that look alike come from different tables or passages of the source. Numbered stars: 1 amine (or outer) side, 2 acyl side, 3 side chain; on linkers, the order of the positions; unused ones are H or OH. Bridge positions count the residues as written; N and C are the ends. Square brackets hold non-standard residues; d marks the D form. Peptide text beside a SMILES is read from it. * marks the point of attachment. DOTA = O=C(O)CN1CCN(CC(=O)O)CCN(CC(=O)*)CCN(CC(=O)O)CC1; TATA = O=C(CC[*:1])N1CN(C(=O)CC[*:2])CN(C(=O)CC[*:3])C1; X1 = O=C(O)CN1CCN(CC(=O)O)CCN([C@H](CCC(=O)*)C(=O)O)CC1; 1Nal = N[C@@H](Cc1cccc2ccccc12)C(=O)O; 2Nal = N[C@@H](Cc1ccc2ccccc2c1)C(=O)O; Hyp = O=C(O)[C@@H]1C[C@@H](O)CN1; hArg = N=C(N)NCCCC[C@H](N)C(=O)O; Met(O) = CS(=O)CC[C@H](N)C(=O)O; SeMet = C[Se]CC[C@H](N)C(=O)O

What was measured:
[1] = Oxidation stability in H2O2 (radio-HPLC)
Description: To avoid a too rapid degradation of radiolabeled peptides, a low H2O2 concentration of 0.0012% was chosen. […] In this context, there are three further thioether functionalities in each peptide due to the cyclization of the Cys residues with TATA. In Figure , the curves for the time-dependent degradation of the intact radioligands are depicted, from which the respective half-lives were calculated.
The stability toward oxidizing conditions was assessed with H2O2. For this purpose, the radioligands (2 nmol, 48 μL of labeling mixture) were treated with H2O2 (2 μL of 0.03%, final concentration of 0.0012%) at ambient temperature. At distinct time points (3, 5, and 7 h), an aliquot of 2 μL was withdrawn and diluted with 48 μL of a mixture named “Supersol,” which consists of 20% ethanol, 0.5% Triton X-100, 5 mM EDTA, 0.5 mM o-phenanthroline, and 0.1% saponin. […] The resulting solutions were analyzed by radio-HPLC (same system as that used for analyzing the ^64Cu-labelings).

[2] = n-Octanol/PBS distribution coefficient (logD 7.4); type: physicochemical
Description: The determination of logD 7.4 was performed in triplicate. A sample of the ^64Cu/^68Ga-labeled compound containing ≈1 MBq in a volume of 1 μL was added to a 1.5 mL Eppendorf tube containing 400 μL of PBS (pH 7.4) and 400 μL of n-Octanol (the phases were presaturated with each other). The tube was vortexed vigorously for 1 min and then centrifuged at 16,100g for 4 min to separate the phases. For sampling from the aqueous phase, the pipette tip was discharged while passing through the octanol layer. Then, the sample was taken within the aqueous phase. Any residual liquid was carefully removed by moving the tip along the inner wall of an Eppendorf tube. The radioactivity in a defined volume of each layer was measured (ISOMED 2100). The distribution coefficient was expressed as the logarithm of the ratio of counts per minute (cpm) measured in the n-Octanol phase to the cpm measured in the PBS phase.

[3] = Small animal PET/CT imaging; set-up: species or system mice; details: mouse, in vivo
Description: (§1) All animal experiments were performed following the protocols evaluated and approved by the Landesdirektion Sachsen, Referat 25 – Veterinärwesen, Lebensmittelüberwachung and Pharmazie (09105 Chemnitz, Germany, ethics approval number: 25-5131/562/52). HT-1376- and 5637-derived tumor xenograft models were established in NMRI nude mice (Rj: NMRI-Foxn1nu/nu, Charles River Laboratories, Sulzfeld, Germany) by subcutaneous injection of 5 × 10^6 cells in 100 μL of PBS containing 50% (v/v) Matrigel (Corning Life Sciences, Amsterdam, The Netherlands).
(§2) When the tumor volume reached 200 mm^3, PET experiments with radiotracers were performed. Radiolabeling of the ligands was performed as described previously with an apparent molar activity of 25 MBq/nmol. The radioligand stock solution (pH 6.5 – 7.5) was diluted in 0.9% NaCl, and 200 μL containing ∼9 MBq ([…]) was injected per mouse intravenously into a lateral tail vein. For blocking of target-specific radioligand binding, 75 nmol of blocking substance (1d) was administered simultaneously with the radioligand. Coincidences were recorded continuously in a 2 h PET-scan starting with the injection. Additionally, a CT scan was performed for anatomical referencing and attenuation correction. PET/CT imaging, reconstruction, and tissue delineation were carried out as described previously.

[4] = target: T1, immobilized human nectin-4 (Homo sapiens, UniProt Q96NY8); experiment: SPR analysis of binding kinetics; details: ±SEM
T1 construct: close to the value determined for the complete extracellular domain of nectin-4 (0.94 nM); purchased R&D Systems 2659-N4
T1 sequence (Q96NY8 32-349 limits assumed): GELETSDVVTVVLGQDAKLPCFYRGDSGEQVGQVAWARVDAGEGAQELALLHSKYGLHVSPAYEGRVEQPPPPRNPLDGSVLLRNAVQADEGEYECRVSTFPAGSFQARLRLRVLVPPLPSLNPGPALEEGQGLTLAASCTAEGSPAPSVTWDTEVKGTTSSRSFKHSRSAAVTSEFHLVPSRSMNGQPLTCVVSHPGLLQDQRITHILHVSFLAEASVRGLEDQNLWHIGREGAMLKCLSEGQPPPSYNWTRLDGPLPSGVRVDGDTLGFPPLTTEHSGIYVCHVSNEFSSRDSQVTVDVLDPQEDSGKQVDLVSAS
Description: For this purpose, recombinant human nectin-4 was covalently immobilized on a CM5 sensor chip by EDC/NHS coupling. For analyses, the buffer composition (HBS-P+, pH 7.4) was similar to that of the FA assay; however, DMSO was completely omitted (1% DMSO for the FA assay).
The SPR analyses were carried out on a Biacore T200 (GE Healthcare, Chicago, IL, USA) at 25 °C using CM5 sensor chips (Cytiva) and HBS-P+ as running buffer (Cytiva) at a flow of 30 μL/min unless otherwise specified and a data collection rate of 10 Hz. All flow cells (FC) were normalized, and functionalization was performed using an amine coupling Kit (Cytiva). […] Binding analyses were performed by a single-cycle kinetic on both FC. Two start-up cycles were performed at the beginning of each experimental set, comprising the injection of bicyclic peptide (50 nM) and analysis on both FC, followed by regeneration. Binding analysis for the bicyclic peptides was performed by consecutive injection of five increasing concentrations (120 s contact time for each concentration), followed by 600 s dissociation time and analysis on both FC. The regeneration was performed by sequential injection of 10 mM NaOAc (pH 5.5) for 60 s, washing the needle using HBS-P+, injection of 10 mM NaOAc (pH 5.5) for 60 s, 600 s waiting, four injections of HBS-P+ (60 s), and a final 600 s waiting for stabilization. Blank runs using only buffer (HBS-P+) instead of the sample were carried out to obtain double-referenced chromatograms. Binding analyses were performed unless otherwise stated in a concentration range between 0.16–100 nM and 1.6–1000 nM (5-fold dilution series) and analyzed in triplicate. The data were analyzed using the Biacore Evaluation software 3.2.1. […] Data were fitted to a 1:1 binding model.

[5] = target: T2, recombinant human nectin-4 (Homo sapiens, UniProt Q96NY8); experiment: FA-based competitive binding assay with probe 1a; details: for Hill coefficient n: competitive binding curve, variable slope
T2 construct: close to the value determined for the complete extracellular domain of nectin-4 (0.94 nM); purchased R&D Systems 2659-N4
T2 sequence (Q96NY8 32-349 limits assumed): T1 sequence (Q96NY8 32-349 limits assumed)
Description: For the competitive binding assay, a constant concentration of probe 1a (1 nM) and of nectin-4 (20 nM) was used, and the concentration of the competitors was varied over at least 3 orders of magnitude. […] Analysis of the curves by nonlinear regression according to dose–response inhibition with variable slope, as implemented in GraphPad Prism (see Experimental section), provided the IC50 value for displacing the probe from nectin-4.
All measurements were conducted at 37 °C over 1200 s (interval of 37 s) using a Cytation 5 multimode microplate reader (BioTek Instruments, Software Gen 5) and black 96-well microplates (BRANDplates with F-bottom wells). Experiments were conducted at an excitation wavelength of 540 nm and an emission wavelength of 620 nm. The FA (r) was calculated by Gen 5 software from the measured parallel and perpendicular fluorescence intensities (I ∥ and I ⊥, respectively) according to eq using a G factor of 0.87 (preset value). r=I∥−G×I⊥/I∥+2G×I⊥ 1
All further data analyses were conducted with GraphPad Prism (version 10.4.1, GraphPad Software, San Diego, CA, USA). The assay mixture (100 μL) contained an aqueous solution (99 μL) and DMSO (1%, v/v, 1 μL).
For the competitive binding assay, fixed concentrations of probe 1a (1 nM) and recombinant human nectin-4 (20 nM) and 10 concentrations of nonlabeled peptide (e.g., […] prepared as serial 1:1 dilution) were used (two separate experiments, each performed in duplicate). The corresponding stock solutions of 1a (2.5 nM) and nectin-4 (50 nM) were prepared in HEPES buffer, while the stock solutions of the nonlabeled peptides were prepared in 5% DMSO/HEPES buffer. nectin-4 (40 μL) and 1a (40 μL) were added to the wells, and the competition was started by the addition of the nonlabeled peptides (20 μL). The FA values were averaged over the time period of 1200 s, and plots of FA = f([peptide]) were analyzed by nonlinear regression according to the model “[inhibitor] vs. response – Variable slope (four parameters)” as implemented in GraphPad Prism. […] Therefore, the lower FA plateau was constrained to the FA value of probe 1a in the absence of nectin-4 and the competitor, which was recorded in each experiment.

[6] = tested on: HT-1376 cells; experiment: Saturation binding assay on intact cells; type: cell-based, human; details: ^68Ga-labeled ligand, intact HT-1376 cells, ±SD
Description: For the saturation binding assay, total and nonspecific binding were determined as described above using 10 different radioligand concentrations ([…]) prepared by serial 1:1 dilution. Plots of “total binding” = f(radioligand) were analyzed by nonlinear regressions using the model of “one site-total, accounting for ligand depletion” as implemented in GraphPad Prism, and Plots of “nonspecific binding” = f(radioligand) were analyzed by linear regressions.

[7] = tested on: HT-1376-derived tumor xenograft model; experiment: Small animal PET/CT imaging; set-up: species or system mice; details: mouse, in vivo
Description: as §1, §2

Compound	half-life ([3]; Blood half life fast [min]) [min]	half-life ([3]; Blood half life slow [min]) [min]	half-life [1] [min]	logD ([2]; pH 7.4, logD 7.4)	fold lower binding affinity compared to 1e ([5]; FA K d ratio) [fold]	Hill coefficient n [5]	further results
C[Se]CC[C@@H]1NC(=O)[C@@H]2CSCCC(=O)N3CN(CN(C3)C(=O)CCSC[C@H](NC(=O)CC[C@H](C(=O)O)N3CCN(CC(=O)O)CCN(CC(=O)O)CC3)C(=O)N3CCC[C@H]3C(=O)N[C@@H](Cc3cccc4ccccc34)C(=O)N[C@H](CC(=O)O)C(=O)N2)C(=O)CCSC[C@@H](C(N)=O)NC(=O)[C@H](Cc2c[nH]c3ccccc23)NC(=O)[C@@H]2C[C@@H](O)CN2C(=O)[C@@H]2CCCN2C(=O)[C@H]([C@@H](C)O)NC(=O)[C@H](CO)NC(=O)[C@H](Cc2c[nH]c3ccccc23)NC(=O)[C@H](CC(=O)O)NC(=O)[C@H](CCCCNC(=N)N)NC1=O [[^64Cu]Cu-5, metal not drawn] (X1-CP[1Nal][dD]C[SeMet][hArg]DWSTP[Hyp]WC-NH2; linker 1-5-15 via TATA)	–	–	–	–	–	–	half-life ([1]; half-life of intact radiolabeled peptide (T1/2), 0.0012% H2O2, 25 °C, one-phase decay): 22.8 min; half-life ([1]; half-life of intact radiolabeled peptide, 0.0012% H2O2): 23 min; logD ([2]; ^64Cu-labeled ligand, n-octanol/PBS pH 7.4, ±SD, read-out: logD 7.4): -2.37
CSCC[C@@H]1NC(=O)[C@@H]2CSCCC(=O)N3CN(CN(C3)C(=O)CCSC[C@H](NC(=O)CC[C@H](C(=O)O)N3CCN(CC(=O)O)CCN(CC(=O)O)CC3)C(=O)N3CCC[C@H]3C(=O)N[C@@H](Cc3cccc4ccccc34)C(=O)N[C@H](CC(=O)O)C(=O)N2)C(=O)CCSC[C@@H](C(N)=O)NC(=O)[C@H](Cc2c[nH]c3ccccc23)NC(=O)[C@@H]2C[C@@H](O)CN2C(=O)[C@@H]2CCCN2C(=O)[C@H]([C@@H](C)O)NC(=O)[C@H](CO)NC(=O)[C@H](Cc2c[nH]c3ccccc23)NC(=O)[C@H](CC(=O)O)NC(=O)[C@H](CCCCNC(=N)N)NC1=O [[^64Cu]Cu-1e, metal not drawn]	1.21 ± 0.21	32.5 ± 3.08	218	-2.74	–	–	–
CSCC[C@@H]1NC(=O)[C@@H]2CSCCC(=O)N3CN(CN(C3)C(=O)CCSC[C@H](NC(=O)CN3CCN(CC(=O)O)CCN(CC(=O)O)CCN(CC(=O)O)CC3)C(=O)N3CCC[C@H]3C(=O)N[C@@H](Cc3ccc4ccccc4c3)C(=O)N[C@H](CC(=O)O)C(=O)N2)C(=O)CCSC[C@@H](C(N)=O)NC(=O)[C@H](Cc2c[nH]c3ccccc23)NC(=O)[C@@H]2C[C@@H](O)CN2C(=O)[C@@H]2CCCN2C(=O)[C@H]([C@@H](C)O)NC(=O)[C@H](CO)NC(=O)[C@H](Cc2c[nH]c3ccccc23)NC(=O)[C@H](CC(=O)O)NC(=O)[C@H](CCCNC(=N)N)NC1=O [8c] ({DOTA}-CP[2Nal][dD]CMRDWSTP[Hyp]WC-NH2; linker 1-5-15 via TATA)	–	–	–	-2.79	213	1.23	kon ([4]; HBS-P+ pH 7.4, 25 °C, read-out: k on (SPR, *10^6 M^–1 s^–1)): 20000 M⁻¹ s⁻¹; koff ([4]; pH 7.4, HBS-P+ pH 7.4, 25 °C, read-out: k off (SPR, *10^–3 s^–1)): 0.00239 s⁻¹; factor less potent than DOTA conjugate 1f ([5]; FA K d ratio): 21 fold; Kd ([6]; 60 min, PBS wash, apparent): 0.103 µM; B max (fmol/mg) [6]: 799 (±136) fmol/mg
CSCC[C@@H]1NC(=O)[C@@H]2CSCCC(=O)N3CN(CN(C3)C(=O)CCSC[C@H](NC(=O)CC[C@H](C(=O)O)N3CCN(CC(=O)O)CCN(CC(=O)O)CC3)C(=O)N3CCC[C@H]3C(=O)N[C@@H](Cc3ccc4ccccc4c3)C(=O)N[C@H](CC(=O)O)C(=O)N2)C(=O)CCSC[C@@H](C(N)=O)NC(=O)[C@H](Cc2c[nH]c3ccccc23)NC(=O)[C@@H]2C[C@@H](O)CN2C(=O)[C@@H]2CCCN2C(=O)[C@H]([C@@H](C)O)NC(=O)[C@H](CO)NC(=O)[C@H](Cc2c[nH]c3ccccc23)NC(=O)[C@H](CC(=O)O)NC(=O)[C@H](CCCNC(=N)N)NC1=O [[^64Cu]Cu-8a, metal not drawn] (X1-CP[2Nal][dD]CMRDWSTP[Hyp]WC-NH2; linker 1-5-15 via TATA)	1.27 ± 0.13	35.9 ± 2.08	242	–	–	–	Percent fast [%] [7]: 84.87 ±1.35%; body retention at 2 h p.i. [7]: 40–42%; time of highest tumor uptake [7]: ≈ 6 min
C[C@@H](O)[C@@H]1NC(=O)[C@H](CO)NC(=O)[C@H](Cc2c[nH]c3ccccc23)NC(=O)[C@H](CC(=O)O)NC(=O)[C@H](CCCCNC(=N)N)NC(=O)[C@H](CC[S+](C)[O-])NC(=O)[C@@H]2CSCCC(=O)N3CN(CN(C3)C(=O)CCSC[C@H](NC(=O)CC[C@H](C(=O)O)N3CCN(CC(=O)O)CCN(CC(=O)O)CC3)C(=O)N3CCC[C@H]3C(=O)N[C@@H](Cc3cccc4ccccc34)C(=O)N[C@H](CC(=O)O)C(=O)N2)C(=O)CCSC[C@@H](C(N)=O)NC(=O)[C@H](Cc2c[nH]c3ccccc23)NC(=O)[C@@H]2C[C@@H](O)CN2C(=O)[C@@H]2CCCN2C1=O (stereo partly drawn) [compound 2] (X1-CP[1Nal][dD]C[Met(O)][hArg]DWSTP[Hyp]WC-NH2; linker 1-5-15 via TATA)	–	–	–	-2.51	34	1.07	–
